Measurements reported in PMC4721142, “Randomized controlled studies on the efficacy of antiarthritic agents in inhibiting cartilage degeneration and pain associated with progression of osteoarthritis in the rat” (Arthritis Research & Therapy, 2016).
Where “and” joins values, the source holds several entries; their conditions need not be identical. Identical values can stand only once.

Assays:
RAW 264.7 cells = assay: RANKL-mediated osteoclastogenesis / matrix resorption (Osteologic) assay; format: cell-based, murine
Description: RAW 264.7 cells (American Type Culture Collection [ATCC], Manassas, VA, USA), a murine monocytic cell line that differentiates in the presence of RANKL, was used for measurements of osteoclastogenesis and osteoclast activity. Cells were amplified on nonadherent culture substratum in high-glucose Dulbecco’s modified Eagle’s medium (DMEM) containing 10 % fetal bovine serum (FBS) and penicillin-streptomycin in a 37 °C, 5 % CO2, humidified incubator and were passaged by manual dissociation. […] Plates were subsequently rinsed, bleached, dried, and analyzed for matrix degradation using a Nikon COOLSCOPE (Nikon Instruments, Melville, NY, USA). Matrix resorption was quantified using EclipseNet (Nikon Instruments)/Visiopharm (Visiopharm, Hørsholm, Denmark) software (see Additional file 1).
In Vitro Osteoclastogenesis
Osteoclastogenic activity was measured using BD osteologic plates and quantitation of the degree of bone matrix digestion on the plate surface. Images from the BD Osteologic assay used to […]
left pane depicts an example of a control well after removal of cells from matrix. Pseudocoloring of matrix (blue) and pits (green) is shown in the far right pane. A transparent overlay of the two images is shown in the center.
Figure 5 - Measurement of drug effects on osteoclastogenesis and osteoclast activity.
Comparisons were made between RANKL treated control wells and wells treated with both RANKL and […]
Agents were initially tested either during differentiation or post differentiation in the bone assay […]
(e.g., Figure 2, Sulfazalazine). […]
indicated (*/**: p < 0.05/0.01, unpaired t-test versus RANKL control). […]

MMP-13 = MMP-13 ELISA on supernatants of TNF-α-treated chondrogenic pellets; format: cell-based, human
[1] = Comparison of in vitro screens: overlapping effective and nontoxic range;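 further: compares non-toxic ranges in synovial cells and chondrocytes with effective ranges against NFkB, MMP-13 and osteoclasts, giving their overlap as the predicted efficacy range in uM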
MIA rat model of OA [2] = assay: MIA trial 3 digital Randall-Selitto test (weekly i.a. clonidine 4.5 μg, tacrolimus 30 ng, fluocinolone 15 ng, meloxicam 100 μg, tranilast 500 ng, TH 150 μg; clonidine 100 μg/kg s.c.); format: in vivo
Description: The digital Randall-Selitto (dRS) test is said to be a reliable and repeatable measure of neuropathic, bone, and inflammatory pain behavior in several different models, including those of arthritic or joint pain [29, 31, 32]. Baseline and posttreatment values were evaluated using a dRS test device (IITC Life Science, Woodland Hills, CA, USA). Animals were allowed to acclimate to the testing room before all experimentation and for a minimum of 30 minutes before testing. To ensure that their hind limbs were accessible, the animals were gently suspended in a restraint sling. The joint compression threshold was measured once at each time point for the ipsilateral and contralateral knee joints. Pressure was applied gradually over approximately 10 seconds to the medial and lateral aspects of the knee joint. Measurements were taken from the first observed behavior of vocalization, struggle, or withdrawal. A cutoff value of 600 g was used to prevent injury to the animal.
Following isoflurane anesthesia, 50 μl (2 mg) of MIA was injected into the synovial space of the left knee. Animals were randomly assigned to groups, and pain behavior was assessed 7, 14, 21, and 28 days following MIA injection and intervention using WB with the Stoelting incapacitance meter (trial 1) or the dRS test (trials 2 and 3). […] Animals received MIA treatment and then saline control or therapeutic. […] Histopathology was performed at each time point and at study termination. All studies were conducted in accordance with the International Association for the Study of Pain Guidelines and were approved by the Algos Therapeutics, Inc. Institutional Animal Care and Use Committee (IACUC) before initiation. Those running the studies were blind to the treatments. See Additional file 1 for further details. […]
struggle or withdrawal. A cut-off value of 600 g was used to prevent injury to the animal. The mean and standard error of the mean (SEM) were determined for each treatment group.
Statistical significance was assigned as p ≤ 0.05. The stability of the vehicle group over time was assessed on each testing day (Days 7, 14, 21, and 28) using repeated measures one-way analysis of variance (ANOVA) comparing joint compression thresholds at each experimental time point on a given testing day versus that testing day’s pre-treatment value. Osteoarthritis-related pain in the vehicle group was estimated at each time point on each testing day by comparing ipsilateral (injured) to contralateral (normal) joint compression thresholds using paired t-tests. The progression of osteoarthritis-related pain in the vehicle group was estimated by comparing pre-treatment joint compression thresholds on each testing day versus pre-MIA measurements using repeated measures one-way ANOVA. […]
thresholds at each experimental time point on a given testing day with vehicle treated animals using an unpaired t-test. The acute effect of Tacrolimus was analyzed by comparing joint compression thresholds at each time point on a given testing day with the corresponding pre-treatment baseline values using repeated measures one-way ANOVA and compared to vehicle treated animals using […]
values using repeated measures one-way ANOVA. Chronic effects were analyzed by comparing pre-treatment joint compression thresholds on each testing day versus the appropriate Day 7 pre-treatment values using repeated measures one-way ANOVA and by comparing pre-treatment joint compression thresholds with vehicle treated animals on each testing day using an unpaired t-test or one-way ANOVA. Day 7 pre-treatment joint compression thresholds between all groups were assessed using one-way ANOVA. The Dunnett’s multiple comparison post hoc test was used when […]
dosing were housed three per cage. Animals had free access to food and water and were maintained […]
The animal colony was maintained at approximately 21 °C. All experiments were conducted in accordance with the International Association for the Study of Pain Guidelines.

MIA rat model of OA [3] = assay: MIA trial 3 histopathology (same doses as dRS test); format: in vivo; design: key to Cartilage matrix damage score: 5-point cartilage matrix score; key to Mean of all cartilage loss: approximate % loss, mean of four articular surfaces; Subchondral bone sclerosis: scale not given here
Description: For MIA trial 3, joints were fixed and toluidine blue–stained sections of the rat knees were comprehensively analyzed from test and control subjects as detailed in Additional file 1. Briefly, a 5-point cartilage matrix score was derived based upon (1) approximate percentage of total loss of articular chondrocytes for each of four articular surfaces, (2) estimated proteoglycan loss (via Safranin O staining), and (3) loss of interstitial matrix. Chondrocyte necrosis and proteolytic degeneration of the femurs were scored on a 5-point scale as in trial 1. A femoral cartilage degeneration score and a three-zone sum of the tibial cartilage degeneration scores (mean of three levels) were also summed to create a total cartilage degeneration score. The mean osteophyte score for each joint was added to this value to create a total joint score with matrix. Other parameters assessed included synovial membrane inflammation and proliferation. Representative images from each group were also collected (see, e.g., Fig. 4 and Additional file 1: Fig. S55, Trial 3). […]
Hawes, APS, Pathologist). Treatments were masked during the assessment. Chondrocyte necrosis and proteolytic degeneration of the femurs were scored on a 5 point scale with 0 = None; 1 = <10%; […]
For the histopathology of the MIA model in Trial 3, completed by Bolder BioPATH (and Dr.
Bendele), a tolouidine blue stained slide containing both halves of the joint was comprehensively analyzed from test and control subjects. Approximate % of total loss of articular chondrocytes, loss of proteoglycan and loss of collagenous matrix were determined for each articular surface (medial tibial plateau (MTP), lateral tibial plateau (LTP), medial femoral condyle (MFC), and lateral femoral condyle (LFC). Chondrocyte loss was quantified by estimating the area of cartilage in which there were no apparently viable chondrocytes and proteoglycan loss was quantified by estimating differences in intensity of toluidine blue matrix staining. Loss of interstitial matrix was an indication of disruption and diminished type II collagen. Based on the mean % loss for the four surfaces in these parameters, a five point matrix score was utilized with the subchondral bone resorption, subchondral bone sclerosis and osteophyte scores to achieve a total joint score. […]
[…] steps, stained with toluidine blue (with a right and left halve per section), and analyzed for cartilage degeneration, proteoglycan loss, collagen damage, and osteophyte formation. Results were averaged across the 3 sections for an overall semi-quantitative score. Regional differences across the tibial plateau were taken into consideration by dividing each section into 3 zones delineated using an ocular micrometer (outside, middle, and inside). Scores were based on the percentage of area affected within the zone.
Cartilage degeneration in the tibia was scored on a five point scale for each zone, collagen damage across the medial tibial plateau was measured by total width for each grade damage. Cartilage degeneration in the tibia was scored none to severe (numerical values 0-5) for each zone (area defined by micrometer) using the following criteria: […]

[4] = tested on: Normal human articular chondrocytes; assay: Cytotoxicity to chondrogenic pellets (CellTiter-Blue)
SW982 = assay: Synovial toxicity (CellTiter-Glo), with or without TNF-α

SMILES: Cc1cnc(NC(=O)C2=C(O)c3ccccc3S(=O)(=O)N2C)s1 [Meloxicam]
- Effective range against Osteoclasts (RAW 264.7 cells): Not effective
- Effective range against MMP-13 (MMP-13): Not effective
- Non-toxic & predicted range of efficacy [1]: 16 to 32 µM
- Overlapping effective and nontoxic range ([1]; inhibits with minimal or no toxicity to synovium or cartilage, overlapping range if effective in more than one assay): 16 to 32 µM
- dRS, hours after dosing with significant difference (MIA rat model of OA [2]; day 7): 1 h
- dRS, hours after dosing with significant difference (MIA rat model of OA [2]; day 14): 3 h
- Bone resorption percent, LFC (MIA rat model of OA [3]; group mean, i.a. weekly): 0%
- Bone resorption percent, LTP (MIA rat model of OA [3]; group mean, i.a. weekly): 0%
- Bone resorption percent, MFC (MIA rat model of OA [3]; group mean, i.a. weekly): 15%
- Bone resorption percent, MTP (MIA rat model of OA [3]; group mean, i.a. weekly): 15%
- Bone resorption percent, mean (MIA rat model of OA [3]; group mean, i.a. weekly): 8%
- Bone resorption score (MIA rat model of OA [3]; group mean, i.a. weekly): 1.0
- Cartilage matrix damage score (MIA rat model of OA [3]; group mean, i.a. weekly): 1.0 and 1.0 ± 0.0
- Mean of all cartilage loss (MIA rat model of OA [3]; group mean, i.a. weekly): 9.7
- Osteophyte measure (MIA rat model of OA [3]; group mean, i.a. weekly): 146.7 µm
- Osteophyte score (MIA rat model of OA [3]; group mean, i.a. weekly): 0.7
- Subchondral bone sclerosis (MIA rat model of OA [3]; group mean, i.a. weekly): 0.3
- Total joint score w/o matrix (MIA rat model of OA [3]; group mean, i.a. weekly): 2.0
- Total joint score with matrix (MIA rat model of OA [3]; group mean, i.a. weekly): 3.0 and 3.0 ± 1.2
- Decrease of total joint score vs vehicle controls (MIA rat model of OA [3]; meloxicam 100 μg i.a.): 47%
- Non-toxic range (Chondrocyte) [4]: 0.125 to 8 M
- Non-toxic range (Synovial) (SW982): 0.25 to 16 µM
